Experiments:
Assay type in all cases: in vivo
[1] = system: Echinochloa crus-galli var. formosensis; experiment: Test Example 1: herbicidal effect test by soil application in paddy rice; details: 120 g active ingredient per 10 ares, applied immediately after sowing, flooded pots, 14 days after application; for pest or weed control at 1200 g/ha: Echinochloa crus-galli, soil, 336 h, read-out: weed inhibition rate
Outline: (§1)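 Soil-applied test under flooded paddy conditions (~3 cm water) in a glass greenhouse. Seeds were sown shallow (0–1 cm, 30 per species), then compound was dripped in as diluted emulsifiable concentrate at 120 g a.i./10 a.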

Scirpus juncoides [2] = experiment: as above; details: 120 g active ingredient per 10 ares, applied immediately after sowing, flooded pots, 14 days after application; for pest or weed control at 1200 g/ha: Schoenoplectiella juncoides, soil, 336 h, read-out: weed inhibition rate
Outline: as §1

Monochoria vaginalis [3] = experiment: Test Example 5: herbicidal effect test by soil application in paddy rice (low dose); details: Pontederia vaginalis, 336 h, 7.5 g per 10 ares, applied immediately after sowing, flooded pots, 14 days after application, read-out: weed inhibition rate
Outline: (§2)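 Paddy-soil pots, weeds sown 0–1 cm deep and flooded to about 3 cm in a greenhouse. Emulsifiable concentrate diluted in water and dropped in right after sowing at 7.5 g active ingredient per 10 ares. Duplicates; effect scored 14 days after application.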

Echinochloa crus-galli [4] = experiment: Test Example 8: herbicidal effect test by stem and leaf treatment in upland field (low dose); details: Echinochloa crus-galli; 7.5 g per 10 ares; sprayed seven days after sowing, upland soil; 14 days after application; read-out: weed inhibition rate
Digitaria ciliaris = experiment: as above; details: Digitaria ciliaris; 7.5 g per 10 ares; sprayed seven days after sowing, upland soil; 14 days after application; read-out: weed inhibition rate
[5] = system: Echinochloa crus-galli var. formosensis; experiment: Test Example 2: herbicidal effect test by application during growth period of paddy rice; details: Echinochloa crus-galli; 120 g per 10 ares; applied seven days after sowing, flooded pots; 14 days after application; read-out: weed inhibition rate
Outline: (§3)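 Paddy soil in flooded pots (water depth about 3 cm) was sown with weed seeds and kept in a glass greenhouse. Seven days after sowing, a diluted emulsifiable concentrate was applied by dropper at 120 g active ingredient per 10 ares. Weed inhibition was evaluated 14 days after application, in duplicate.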

Scirpus juncoides [6] = experiment: as above; details: Schoenoplectiella juncoides; 120 g per 10 ares; applied seven days after sowing, flooded pots; 14 days after application; read-out: weed inhibition rate
Outline: as §3

Monochoria vaginalis [7] = experiment: as above; details: Pontederia vaginalis; 120 g per 10 ares; applied seven days after sowing, flooded pots; 14 days after application; read-out: weed inhibition rate
Outline: as §3

Echinochloa crus-galli [8] = experiment: Test Example 4: herbicidal effect test by stem and leaf treatment in upland field; details: Echinochloa crus-galli; 120 g per 10 ares; sprayed seven days after sowing, upland soil; 14 days after application; read-out: weed inhibition rate
[9] = system: Echinochloa crus-galli var. formosensis; experiment: Test Example 5: herbicidal effect test by soil application in paddy rice (low dose); details: Echinochloa crus-galli, soil, 336 h; 7.5 g per 10 ares; applied immediately after sowing, flooded pots; 14 days after application; read-out: weed inhibition rate
Outline: as §2

Monochoria vaginalis [10] = experiment: Test Example 1: herbicidal effect test by soil application in paddy rice; details: 120 g active ingredient per 10 ares, applied immediately after sowing, flooded pots, 14 days after application; for pest or weed control at 1200 g/ha: Pontederia vaginalis, soil, 336 h, read-out: weed inhibition rate
Outline: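 Pre-emergence test in puddled, flooded paddy soil (about 3 cm water), 30 seeds per weed sown at 0–1 cm depth in a glass greenhouse. Emulsifiable concentrate diluted in water and dropped onto the pots straight after sowing at 120 g a.i. per 10 ares. Weed inhibition (%) scored at 14 days, in duplicate.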

Scirpus juncoides [11] = experiment: Test Example 5: herbicidal effect test by soil application in paddy rice (low dose); details: Schoenoplectiella juncoides, 336 h, 7.5 g per 10 ares, applied immediately after sowing, flooded pots, 14 days after application, read-out: weed inhibition rate
Outline: as §2

CC(C)[C@]12C[C@@H](OCc3cccc(F)c3)[C@](C)(C[C@@H]1Br)O2 [1-690, (1S,2R,4R,5S)-5-bromo-2-[(3-fluorophenyl)methoxy]-1-methyl-4-isopropyl-7-oxabicyclo[2.2.1]heptane]
≥ 80%: pest or weed control at 1200 g/ha [1] | pest or weed control at 1200 g/ha (Scirpus juncoides [2]) | inhibition at 75 g/ha (Monochoria vaginalis [3]) | inhibition at 75 g/ha (Echinochloa crus-galli [4]) | inhibition at 75 g/ha (Digitaria ciliaris) | inhibition at 1200 g/ha [5] | inhibition at 1200 g/ha (Scirpus juncoides [6]) | inhibition at 1200 g/ha (Monochoria vaginalis [7]) | inhibition at 1200 g/ha (Echinochloa crus-galli [8]) | inhibition at 75 g/ha [9] | pest or weed control at 1200 g/ha (Monochoria vaginalis [10])

CCCO[C@H]1C[C@]2(C)O[C@@]1(C(C)C)C[C@H]2OCc1ccccc1F [1-1604, (1S,2R,4R,SS)-2-[(2-fluorophenyl)methoxy]-1-methyl-4-isopropyl-5-propoxy-7-oxabicyclo[2.2.1]heptane]
≥ 80%: weed inhibition rate [1] | weed inhibition rate (Scirpus juncoides [2]) | inhibition at 75 g/ha (Scirpus juncoides [11]) | inhibition at 75 g/ha (Monochoria vaginalis [3]) | inhibition at 75 g/ha (Echinochloa crus-galli [4]) | inhibition at 75 g/ha (Digitaria ciliaris) | inhibition at 1200 g/ha [5] | inhibition at 1200 g/ha (Scirpus juncoides [6]) | inhibition at 1200 g/ha (Echinochloa crus-galli [8]) | inhibition at 75 g/ha [9] | weed inhibition rate (Monochoria vaginalis [10])

CC(C)[C@]12C[C@@H](OCc3cccc(Cl)c3)[C@](C)(C[C@@H]1Br)O2 [1-692, (1S,2R,4R,5S)-5-bromo-2-[(3-chlorophenyl)methoxy]-1-methyl-4-isopropyl-7-oxabicyclo[2.2.1]heptane]
≥ 80%: pest or weed control at 1200 g/ha [1] | pest or weed control at 1200 g/ha (Scirpus juncoides [2]) | inhibition at 75 g/ha (Scirpus juncoides [11]) | inhibition at 75 g/ha (Monochoria vaginalis [3]) | inhibition at 1200 g/ha [5] | inhibition at 1200 g/ha (Scirpus juncoides [6]) | inhibition at 1200 g/ha (Monochoria vaginalis [7]) | inhibition at 1200 g/ha (Echinochloa crus-galli [8]) | inhibition at 75 g/ha [9] | pest or weed control at 1200 g/ha (Monochoria vaginalis [10])

CC(C)[C@]12C[C@@H](OCc3ccccc3F)[C@](C)(C/C1=N\O)O2 [2-197, (1R,4S,5R,E)-5-((2-fluorobenzyl)oxy)-1-isopropyl-4-methyl-7-oxabicyclo[2.2.1]heptan-2-one oxime]
≥ 80%: pest or weed control at 1200 g/ha [1] | pest or weed control at 1200 g/ha (Scirpus juncoides [2]) | inhibition at 75 g/ha (Monochoria vaginalis [3]) | inhibition at 75 g/ha (Echinochloa crus-galli [4]) | inhibition at 75 g/ha (Digitaria ciliaris) | inhibition at 1200 g/ha [5] | inhibition at 1200 g/ha (Scirpus juncoides [6]) | inhibition at 1200 g/ha (Monochoria vaginalis [7]) | inhibition at 1200 g/ha (Echinochloa crus-galli [8]) | inhibition at 75 g/ha [9] | pest or weed control at 1200 g/ha (Monochoria vaginalis [10])

Cc1ccccc1CO[C@@H]1C[C@]2(C(C)C)O[C@@]1(C)C[C@@H]2F [1-2, (1R,2S,4S,5R)-2-fluoro-1-isopropyl-4-methyl-5-((2-methylbenzyl)oxy)-7-oxabicyclo[2.2.1]heptane]
≥ 80%: pest or weed control at 1200 g/ha [1] | pest or weed control at 1200 g/ha (Scirpus juncoides [2]) | inhibition at 75 g/ha (Monochoria vaginalis [3]) | inhibition at 75 g/ha (Echinochloa crus-galli [4]) | inhibition at 75 g/ha (Digitaria ciliaris) | inhibition at 1200 g/ha [5] | inhibition at 1200 g/ha (Scirpus juncoides [6]) | inhibition at 1200 g/ha (Monochoria vaginalis [7]) | inhibition at 1200 g/ha (Echinochloa crus-galli [8]) | inhibition at 75 g/ha [9] | pest or weed control at 1200 g/ha (Monochoria vaginalis [10])

CC(C)[C@]12C[C@@H](OCc3cccc(F)c3F)[C@](C)(CC1=O)O2 [2-14, (1R,4S,5R)-5-((2,3-difluorobenzyl)oxy)-1-isopropyl-4-methyl-7-oxabicyclo[2.2.1]heptan-2-one]
≥ 80%: pest or weed control at 1200 g/ha [1] | pest or weed control at 1200 g/ha (Scirpus juncoides [2]) | inhibition at 75 g/ha (Scirpus juncoides [11]) | inhibition at 75 g/ha (Monochoria vaginalis [3]) | inhibition at 75 g/ha (Echinochloa crus-galli [4]) | inhibition at 75 g/ha (Digitaria ciliaris) | inhibition at 1200 g/ha [5] | inhibition at 1200 g/ha (Echinochloa crus-galli [8]) | inhibition at 75 g/ha [9] | pest or weed control at 1200 g/ha (Monochoria vaginalis [10])

CC(C)[C@]12C[C@@H](OCc3c(Cl)cccc3Cl)[C@](C)(C[C@@H]1Br)O2 [1-712, (1S,2R,4R,5S)-5-bromo-2-[(2,6-dichlorophenyl)methoxy]-1-methyl-4-isopropyl-7-oxabicyclo[2.2.1]heptane]
≥ 80%: pest or weed control at 1200 g/ha [1] | pest or weed control at 1200 g/ha (Scirpus juncoides [2]) | inhibition at 75 g/ha (Monochoria vaginalis [3]) | inhibition at 75 g/ha (Echinochloa crus-galli [4]) | inhibition at 1200 g/ha [5] | inhibition at 1200 g/ha (Scirpus juncoides [6]) | inhibition at 1200 g/ha (Monochoria vaginalis [7]) | inhibition at 1200 g/ha (Echinochloa crus-galli [8]) | inhibition at 75 g/ha [9] | pest or weed control at 1200 g/ha (Monochoria vaginalis [10])

CC(C)[C@]12C[C@@H](OCc3c(F)cccc3Cl)[C@](C)(C[C@@H]1Br)O2 [1-713, (1S,2R,4R,5S)-5-bromo-2-[(2-chloro-6-fluorophenyl)methoxy]-1-methyl-4-isopropyl-7-oxabicyclo[2.2.1]heptane]
≥ 80%: pest or weed control at 1200 g/ha [1] | pest or weed control at 1200 g/ha (Scirpus juncoides [2]) | inhibition at 75 g/ha (Monochoria vaginalis [3]) | inhibition at 75 g/ha (Echinochloa crus-galli [4]) | inhibition at 75 g/ha (Digitaria ciliaris) | inhibition at 1200 g/ha [5] | inhibition at 1200 g/ha (Scirpus juncoides [6]) | inhibition at 1200 g/ha (Monochoria vaginalis [7]) | inhibition at 1200 g/ha (Echinochloa crus-galli [8]) | inhibition at 75 g/ha [9] | pest or weed control at 1200 g/ha (Monochoria vaginalis [10])

CC(C)[C@]12C=C[C@](C)(O1)[C@H](OCc1c(F)cccc1F)C2 [3-7, (1R,4S,5R)-5-[(2,6-difluorophenyl)methoxy]-4-methyl-1-isopropyl-7-oxabicyclo[2.2.1]hept-2-ene]
≥ 80%: pest or weed control at 1200 g/ha [1] | pest or weed control at 1200 g/ha (Scirpus juncoides [2]) | inhibition at 75 g/ha (Scirpus juncoides [11]) | inhibition at 75 g/ha (Monochoria vaginalis [3]) | inhibition at 75 g/ha (Echinochloa crus-galli [4]) | inhibition at 75 g/ha (Digitaria ciliaris) | inhibition at 1200 g/ha [5] | inhibition at 1200 g/ha (Scirpus juncoides [6]) | inhibition at 1200 g/ha (Echinochloa crus-galli [8]) | inhibition at 75 g/ha [9] | pest or weed control at 1200 g/ha (Monochoria vaginalis [10])

Cc1ccccc1CO[C@@H]1C[C@]2(C(C)C)O[C@@]1(C)C/C2=N\O [2-191, (1R,4S,5R,E)-1-isopropyl-4-methyl-5-((2-methylbenzyl)oxy)-7-oxabicyclo[2.2.1]heptan-2-one oxime]
≥ 80%: pest or weed control at 1200 g/ha [1] | pest or weed control at 1200 g/ha (Scirpus juncoides [2]) | inhibition at 75 g/ha (Monochoria vaginalis [3]) | inhibition at 75 g/ha (Echinochloa crus-galli [4]) | inhibition at 75 g/ha (Digitaria ciliaris) | inhibition at 1200 g/ha [5] | inhibition at 1200 g/ha (Scirpus juncoides [6]) | inhibition at 1200 g/ha (Monochoria vaginalis [7]) | inhibition at 1200 g/ha (Echinochloa crus-galli [8]) | inhibition at 75 g/ha [9] | pest or weed control at 1200 g/ha (Monochoria vaginalis [10])

CC(C)[C@]12C[C@@H](OCc3ccccc3Br)[C@](C)(C[C@@H]1Br)O2 [1-694, (1S,2R,4R,5S)-5-bromo-2-[(2-bromophenyl)methoxy]-1-methyl-4-isopropyl-7-oxabicyclo[2.2.1]heptane]
≥ 80%: pest or weed control at 1200 g/ha [1] | inhibition at 75 g/ha (Monochoria vaginalis [3]) | inhibition at 75 g/ha (Echinochloa crus-galli [4]) | inhibition at 1200 g/ha [5] | inhibition at 1200 g/ha (Monochoria vaginalis [7]) | inhibition at 1200 g/ha (Echinochloa crus-galli [8]) | inhibition at 75 g/ha [9] | pest or weed control at 1200 g/ha (Monochoria vaginalis [10])

C=C1C[C@]2(C)O[C@@]1(C(C)C)C[C@H]2OCc1ccccc1C [2-72, (1R,4S,5R)-1-isopropyl-4-methyl-5-((2-methylbenzyl)oxy)-2-methylene-7-oxabicyclo[2.2.1]heptane]
≥ 80%: pest or weed control at 1200 g/ha [1] | pest or weed control at 1200 g/ha (Scirpus juncoides [2]) | inhibition at 75 g/ha (Monochoria vaginalis [3]) | inhibition at 75 g/ha (Echinochloa crus-galli [4]) | inhibition at 75 g/ha (Digitaria ciliaris) | inhibition at 1200 g/ha [5] | inhibition at 1200 g/ha (Scirpus juncoides [6]) | inhibition at 1200 g/ha (Monochoria vaginalis [7]) | inhibition at 1200 g/ha (Echinochloa crus-galli [8]) | inhibition at 75 g/ha [9] | pest or weed control at 1200 g/ha (Monochoria vaginalis [10])

Cc1cccc(C)c1CO[C@@H]1C[C@@]2(C(C)C)C=C[C@]1(C)O2 [3-3, (1R,4S,5R)-5-[(2,6-dimethylphenyl)methoxy]-4-methyl-1-isopropyl-7-oxabicyclo[2.2.1]hept-2-ene]
≥ 80%: pest or weed control at 1200 g/ha [1] | pest or weed control at 1200 g/ha (Scirpus juncoides [2]) | inhibition at 75 g/ha (Scirpus juncoides [11]) | inhibition at 75 g/ha (Monochoria vaginalis [3]) | inhibition at 1200 g/ha [5] | inhibition at 1200 g/ha (Scirpus juncoides [6]) | inhibition at 1200 g/ha (Echinochloa crus-galli [8]) | inhibition at 75 g/ha [9] | pest or weed control at 1200 g/ha (Monochoria vaginalis [10])
